# What was measured:
# Format in all cases: cell-based
# [1] = tested on: HT-29; assay: SRB colorimetric cell growth inhibition assay, HT-29; conditions: Homo sapiens, HT-29, HT-29; for GI50: GI=growth inhibition, read-out: GI50 HT-29; for CC50: LC=cell killing (cytotoxic effect), read-out: LC50 HT-29; for IC (TGI): TGI=total growth inhibition (cytostatic effect), read-out: TGI HT-29
# Method in brief: (§1)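 Sulforhodamine B colorimetric readout measured cell growth and viability after continuous compound exposure of human cancer cell lines in 96-well plates. Triplicate wells gave mean ± SD, from which growth inhibition (GI), cytostatic total growth inhibition (TGI) and cytotoxic cell killing (LC) were calculated.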
# [2] = tested on: K-562; assay: SRB colorimetric cell growth inhibition assay, K-562; conditions: Homo sapiens, K562, K-562; for GI50: GI=growth inhibition, read-out: GI50 K-562; for CC50: LC=cell killing (cytotoxic effect), read-out: LC50 K-562; for IC (TGI): TGI=total growth inhibition (cytostatic effect), read-out: TGI K-562
# Method in brief: as §1
# [3] = tested on: A-549; assay: SRB colorimetric cell growth inhibition assay, A-549; conditions: Homo sapiens, A549, A-549; for GI50: GI=growth inhibition, read-out: GI50 A-549; for CC50: LC=cell killing (cytotoxic effect), read-out: LC50 A-549; for IC (TGI): TGI=total growth inhibition (cytostatic effect), read-out: TGI A-549
# Method in brief: as §1
# [4] = SRB colorimetric cell growth inhibition assay, H-MEC-1; conditions: human, H-MEC-1 cells, H-MEC-1; LC=cell killing (cytotoxic effect); read-out: LC50 H-MEC-1
# Method in brief: (§2)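 Growth and viability quantified by sulforhodamine B staining in 96-well microplates. Triplicate wells give mean ± SD; derived endpoints are GI, TGI (cytostatic) and LC (cytotoxic).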
# [5] = tested on: H-MEC-1; assay: as above; conditions: Homo sapiens, HMEC-1, H-MEC-1; for GI50: GI=growth inhibition; for IC (TGI): TGI=total growth inhibition (cytostatic effect), read-out: TGI H-MEC-1
# Method in brief: as §2
# [6] = tested on: SK-BR-3; assay: SRB colorimetric cell growth inhibition assay, SK-BR-3; conditions: Homo sapiens, SK-BR-3, SK-BR-3; for GI50: GI=growth inhibition, read-out: GI50 SK-BR-3; for CC50: LC=cell killing (cytotoxic effect), read-out: LC50 SK-BR-3; for IC (TGI): TGI=total growth inhibition (cytostatic effect), read-out: TGI SK-BR-3
# Method in brief: as §1
# [7] = tested on: PANC-1; assay: SRB colorimetric cell growth inhibition assay, PANC-1; conditions: Homo sapiens, PANC-1, PANC-1; for GI50: GI=growth inhibition, read-out: GI50 PANC-1; for CC50: LC=cell killing (cytotoxic effect), read-out: LC50 PANC-1; for IC (TGI): TGI=total growth inhibition (cytostatic effect), read-out: TGI PANC-1
# Method in brief: as §1
# [8] = tested on: IGROV; assay: SRB colorimetric cell growth inhibition assay, IGROV; conditions: Homo sapiens, IGROV; for GI50: GI=growth inhibition, read-out: GI50 IGROV; for CC50: LC=cell killing (cytotoxic effect), read-out: LC50 IGROV; for IC (TGI): TGI=total growth inhibition (cytostatic effect), read-out: TGI IGROV
# Method in brief: as §1
# [9] = tested on: LoVo-Dox; assay: SRB colorimetric cell growth inhibition assay, LoVo-Dox (MDR); conditions: Homo sapiens, LOVO-DOX; for GI50: GI=growth inhibition, read-out: GI50 LOVO-DOX; for CC50: LC=cell killing (cytotoxic effect), read-out: LC50 LOVO-DOX; for IC (TGI): TGI=total growth inhibition (cytostatic effect), read-out: TGI LOVO-DOX
# Method in brief: as §1
# [10] = tested on: DU-145; assay: SRB colorimetric cell growth inhibition assay, DU-145; conditions: Homo sapiens, DU-145, DU-145; for GI50: GI=growth inhibition, read-out: GI50 DU-145; for CC50: LC=cell killing (cytotoxic effect), read-out: LC50 DU-145; for IC (TGI): TGI=total growth inhibition (cytostatic effect), read-out: TGI DU-145
# Method in brief: as §1
# [11] = tested on: IGROV-ET; assay: SRB colorimetric cell growth inhibition assay, IGROV-ET (ET-743 resistant); conditions: Homo sapiens, IGROV-ET; for GI50: GI=growth inhibition, read-out: GI50 IGROV-ET; for CC50: LC=cell killing (cytotoxic effect), read-out: LC50 IGROV-ET; for IC (TGI): TGI=total growth inhibition (cytostatic effect), read-out: TGI IGROV-ET
# Method in brief: as §1
# [12] = tested on: SK-MEL-28; assay: SRB colorimetric cell growth inhibition assay, SK-MEL-28; conditions: Homo sapiens, SK-MEL-28, MEL-28; for GI50: GI=growth inhibition, read-out: GI50 MEL-28; for CC50: LC=cell killing (cytotoxic effect), read-out: LC50 MEL-28; for IC (TGI): TGI=total growth inhibition (cytostatic effect), read-out: TGI MEL-28
# Method in brief: as §1
# [13] = tested on: SKOV-3; assay: SRB colorimetric cell growth inhibition assay, SKOV-3; conditions: Homo sapiens; for GI50: SK-OV-3, SKOV-3, GI=growth inhibition, read-out: GI50 SKOV-3; for CC50 / IC (TGI): SK-OV-3, SKOV-3; for CC50: LC=cell killing (cytotoxic effect), read-out: LC50 SKOV-3; for IC (TGI): TGI=total growth inhibition (cytostatic effect), read-out: TGI SKOV-3
# Method in brief: as §2
# [14] = tested on: LoVo; assay: SRB colorimetric cell growth inhibition assay, LoVo; conditions: Homo sapiens, LoVo; for GI50: GI=growth inhibition, read-out: GI50 LOVO; for CC50: LC=cell killing (cytotoxic effect), read-out: LC50 LOVO; for IC (TGI): TGI=total growth inhibition (cytostatic effect), read-out: TGI LOVO
# Method in brief: as §1
# [15] = tested on: LNCaP; assay: SRB colorimetric cell growth inhibition assay, LNCaP; conditions: Homo sapiens, LNCaP, LN-caP; for GI50: GI=growth inhibition, read-out: GI50 LN-caP; for CC50: LC=cell killing (cytotoxic effect), read-out: LC50 LN-caP; for IC (TGI): TGI=total growth inhibition (cytostatic effect), read-out: TGI LN-caP
# Method in brief: as §1
structure (smiles),measurement,setting,value
COc1cc(-c2c3n(c4c(=O)oc5cc(OC(=O)[C@@H](N)COCc6ccccc6)c(OC)cc5c24)CCc2c-3cc(OC)c(OC)c2OC(=O)[C@@H](N)COCc2ccccc2)ccc1OC(=O)[C@@H](N)COCc1ccccc1 [Compound 66],GI50,[1],2.77 µM
same,CC50,[1],7.12 µM
same,IC (TGI),[1],6.77 µM
same,GI50,[2],0.982 µM
same,CC50,[2],7.12 µM
same,IC (TGI),[2],2.8 µM
same,GI50,[3],1.86 µM
same,CC50,[3],6.43 µM
same,IC (TGI),[3],3.46 µM
same,CC50,[4],4.93 µM
same,GI50,[5],1.52 µM
same,IC (TGI),[5],2.73 µM
same,GI50,[6],0.434 µM
same,CC50,[6],7.12 µM
same,IC (TGI),[6],1.82 µM
same,GI50,[7],1.95 µM
same,CC50,[7],7.12 µM
same,IC (TGI),[7],7.12 µM
same,GI50,[8],1.35 µM
same,CC50,[8],6.75 µM
same,IC (TGI),[8],3.02 µM
same,GI50,[9],1.91 µM
same,CC50,[9],7.12 µM
same,IC (TGI),[9],5.56 µM
same,GI50,[10],1.73 µM
same,CC50,[10],7.12 µM
same,IC (TGI),[10],3.65 µM
same,GI50,[11],1.22 µM
same,CC50,[11],6.87 µM
same,IC (TGI),[11],2.9 µM
same,GI50,[12],1.42 µM
same,CC50,[12],4.55 µM
same,IC (TGI),[12],2.55 µM
same,GI50,[13],2.85 µM
same,CC50,[13],7.12 µM
same,IC (TGI),[13],6.28 µM
same,GI50,[14],2.19 µM
same,CC50,[14],7.12 µM
same,IC (TGI),[14],7.12 µM
same,GI50,[15],0.89 µM
same,CC50,[15],4.03 µM
same,IC (TGI),[15],1.89 µM
COc1cc2ccn3c(c(-c4ccc(OC(=O)[C@H](C)NC(=O)OC(C)(C)C)c(OC)c4)c4c5cc(OC)c(OC(=O)[C@H](C)NC(=O)OC(C)(C)C)cc5oc(=O)c43)c2cc1OC [Compound 77],GI50,[1],11.7 µM
same,CC50,[1],11.7 µM
same,IC (TGI),[1],11.7 µM
same,GI50,[2],2.13 µM
same,CC50,[2],11.7 µM
same,IC (TGI),[2],6.15 µM
same,GI50,[3],6.69 µM
same,CC50,[3],11.7 µM
same,IC (TGI),[3],11.7 µM
same,CC50,[4],11.7 µM
same,GI50,[5],2.71 µM
same,IC (TGI),[5],11.7 µM
same,GI50,[6],3.53 µM
same,CC50,[6],11.7 µM
same,IC (TGI),[6],11.7 µM
same,GI50,[7],4.46 µM
same,CC50,[7],11.7 µM
same,IC (TGI),[7],11.7 µM
same,GI50,[8],5.92 µM
same,CC50,[8],11.7 µM
same,IC (TGI),[8],8.84 µM
same,GI50,[9],10.2 µM
same,CC50,[9],11.7 µM
same,IC (TGI),[9],11.7 µM
same,GI50,[10],0.8 µM
same,CC50,[10],11.7 µM
same,IC (TGI),[10],3.96 µM
same,GI50,[11],0.258 µM
same,CC50,[11],11.7 µM
same,IC (TGI),[11],1.17 µM
same,GI50,[12],3.29 µM
same,CC50,[12],11.7 µM
same,IC (TGI),[12],10.1 µM
same,GI50,[13],7.52 µM
same,CC50,[13],11.7 µM
same,IC (TGI),[13],11.7 µM
same,GI50,[14],11.7 µM
same,CC50,[14],11.7 µM
same,IC (TGI),[14],11.7 µM
same,GI50,[15],7.51 µM
same,CC50,[15],11.7 µM
same,IC (TGI),[15],11.7 µM

# Reference: patent US7396837B2, “Antitumoral analogs of lamellarins” (Pharma Mar, S.A.U., priority 2002, dated 2008)
